{
  "source": "patent US20100009950A1",
  "about": "“SUBSTITUTED ETHANOLAMINES” (AUSPEX PHARMACEUTICALS, INC., priority 2008, published 2010)",
  "details": "mark in second data column (bin 0%-50%); 1 mg per mL liver microsome protein, 1 μM, 37° C.; vs non-isotopically enriched compound",
  "data": [
    {"substance": "N-(2-Hydroxy-2-(4-hydroxy-3-(hydroxymethyl)phenyl)ethyl)-6-(4-d3-phenyl-d8-butoxy)hexan-1-d2-aminium 1-hydroxy-2-naphthoate [Example 5]", "values": [
      {"measurement": "% increase of HLM degradation half-life", "result": "+ (0%-50%)"}
    ]}
  ]
}
